This is an account of results in patent US5104891A, “Cycloheptimidazolone compounds as angiotensin II antagonists for control of hypertension” (G. D. Searle & Co., priority 1989, dated 1992).

In assay [1] the target is angiotensin II receptor (rat uterine membranes). Description: Angiotensin II binding assay (125I-angiotensin II, rat uterine membranes). The procedure:
Other chemicals were obtained from Sigma Chemical Co.
Rat uterine membranes were prepared from fresh tissue. All procedures were carried out at 4° C. Uteri were stripped of fat and homogenized using a Polytron for 25 sec in 20 volumes of ice-cold Dulbecco's phosphate-buffered saline pH 7.5 (Gibso Labs) containing 5 mM EDTA. The homogenate was centrifuged at 1500× g for 20 min., and the supernatant was recentrifuged at 100,000× g for 60 min. The pellet was resuspended in buffer consisting of 2 mM EDTA and 50 mM Tris-HCl, pH 7.5 to a final protein concentration of 4 mg/ml.
The reaction was initiated by the addition of 50 μg of membrane protein and the mixture was incubated at 25° C. for 30 min. The incubation was terminated with ice-cold 50 mM Tris-HCl; pH 7.5 and the mixture was filtered to separate membrane-bound labelled peptide from the free ligand. The incubation tube and filter were washed with ice-cold buffer. Filters were assayed for radioactivity in a Micromedic gamma counter. Nonspecific binding was defined as binding in the presence of 10 μM of unlabelled AII. Specific binding was calculated as total binding minus nonspecific binding. Binding data was analyzed by a nonlinear least-squares curve fitting program.

The target in assay [2] is T1, angiotensin II (AII) contraction of rabbit aortic rings (Oryctolagus cuniculus, UniProt P34976).
T1 construct: The thoracic aorta was removed, cleaned of adherent fat and connective tissue and then cut into 3-mm ring segments; from tissue; host or cells: rabbit thoracic aorta rings, endothelium removed
T1 sequence (P34976 1-359): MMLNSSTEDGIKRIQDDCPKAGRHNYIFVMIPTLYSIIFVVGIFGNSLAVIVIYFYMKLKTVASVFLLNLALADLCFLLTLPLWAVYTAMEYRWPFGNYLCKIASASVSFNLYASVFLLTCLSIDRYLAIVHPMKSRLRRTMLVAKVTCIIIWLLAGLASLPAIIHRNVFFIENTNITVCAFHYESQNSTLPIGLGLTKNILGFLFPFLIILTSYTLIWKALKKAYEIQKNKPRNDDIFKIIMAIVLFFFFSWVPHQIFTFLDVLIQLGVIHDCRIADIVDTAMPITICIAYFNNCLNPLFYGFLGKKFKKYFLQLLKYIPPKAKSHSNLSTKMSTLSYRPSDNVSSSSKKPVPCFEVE
The assay can be described thus: In vitro myotropic screening assay for AII antagonists in rabbit aortic rings. Particulars: pA2 determined according to Schild. Format: cell-based. The procedure:
The compounds of the invention were tested for agonist and antagonist activity in rabbit aortic rings. Male New Zealand white rabbits (2-2.5 kg) were sacrificed using an overdose of pentobarbital and exsanguinated via the carotid arteries. The thoracic aorta was removed, cleaned of adherent fat and connective tissue and then cut into 3-mm ring segments. The endothelium was removed from the rings by gently sliding a rolled-up piece of filter paper into the vessel lumen. The rings were then mounted in a water-jacketed tissue bath, maintained at 37° C., between a moveable and a fixed stainless steel wire, with the moveable end attached to an FT03 Grass transducer coupled to a Model 7D Grass Polygraph for recording isometric force responses. […] The preparations were equilibrated for one hour before approximately one gram of passive tension was placed on the rings. For the agonist assay, the rings were exposed to increasing concentrations of the test compound, at 30 minute intervals, during which time the tissue was washed three times with 20 ml of fresh Krebs solution. For the measurement of antagonistic activity, paired rings from the same rabbits were used; one was exposed to increasing concentrations of AII (at 30 minute intervals), and a second ring was exposed to increasing concentrations of AII in the presence of the test compound which was added five minutes prior to the addition of AII. The concentration response curves for AII in the presence of the antagonist were evaluated in terms of the percent of the maximal contraction of the control ring exposed only to AII. pD2 values for AII were calculated from the AII concentration response curves while pA2s were determined according to Schild.

A further assay relates to angiotensin II. The note with it: literature; cited from earlier work.
A further assay concerns AII pressor response. The assay can be described thus: In vivo pressor screening assay for AII antagonists, intravenous administration. The arrangement: species or system rat (male Sprague Dawley). Particulars: rat, @ 10 mg. The protocol: Male Sprague Dawley rats weighing […] were anesthetized with Inactin (100 mg/kg), a catheter was inserted into the trachea and the carotid artery and the jugular vein were cannulated. Arterial pressure was measured from the carotid artery cannula and continuously recorded (Gould, Cleveland, OH). The jugular vein cannula was used for injections of angiotensin II (AII), mecamylamine, atropine and the test compound. The animal was allowed to equilibrate for 30 minutes. Mecamylamine (3 mg/kg, 0.3 mg/kg) and atropine (400 μg/kg, 0.3 ml/kg) were then given iv to produce ganglion blockage. These compounds were administered every 90 minutes throughout the screening procedure. Angiotensin II was given in bolus doses ([…] in saline with 0.5% bovine serum albumin, 0.1 ml/kg) every 10 minutes consecutively three times or until the increase in arterial pressure produced was within 3 mm Hg for two consecutive injections. The last two AII injections are averaged and are referred to as the control response to AII. […] AII injections were then given 1, 5, 10, 20, 30, 45, 60, 75, 90, and 120 minutes after administration of the test compound and the response of arterial pressure monitored. […]

For another assay, the system named is angiotensin II receptors. Particulars: background; cited from earlier work.
The mark [3] stands for this setting: IC50, 125I-AII, rat uterine membranes, 25° C., 30 min.

As a reminder, the IC50 is the concentration at which inhibition is half-maximal. For orientation: pA2 means the negative logarithm of the molar antagonist concentration that doubles the agonist concentration needed for the same response. Low values mean lower antagonist potency, high ones higher antagonist potency. A word on the Kb: it is the equilibrium dissociation constant of an antagonist, usually derived from a functional assay. Read a high Kb as lower antagonist affinity.

Consider “4'-[[5(7)-benzyl-7(5)hydrido-2-butyl-6(1H)-cycloheptimidazolon-1-yl]methyl]-[1,1'-biphenyl]-2-carboxylic acid [Example 14]”, for which the IC50 in assay [1] (setting [3]) is 2300 nM; in assay [1] (meaning not explained), 108 nM. Also, the pA2 in assay [2] is on record as 6.1.
Turning to `CCCCc1nc(Cl)c(CC(=O)O)n1Cc1ccccc1[N+](=O)[O-]` [2-butyl-4-chloro-1-(2-nitrobenzyl)imiadzole-5-acetic acid], the “angiotensin II antagonist activity” value with angiotensin II is listed as “specific competitive angiotensin II antagonist activity”.
With `CCCCc1nc(Cl)c(CC(=O)O)n1Cc1ccccc1Cl` [2-n-butyl-4-chloro-1-(2-chlorobenzyl) imidozole-s-acetic acid], in the assay with angiotensin II, the “angiotensin II antagonist activity” value was “specific competitive angiotensin II antagonist activity”.
With `CCCCc1nc2cc(C(=O)O)c(=O)c(C(=O)O)cc2n1Cc1ccc(-c2ccccc2C(=O)O)cc1` [Example 2, 4'-[[5,7-dicarboxy-2-butyl-6(1H)-cycloheptimidazolon-1-yl]methyl]-[1,1'-biphenyl]-2-carboxylic acid], the “Antagonism of the AII pressor response, maximal inhibition, I.V.” value in the assay with AII pressor response came to 100%. Besides, the figures for the half-maximal inhibitory concentration (IC50) in assay [1] (setting [3]) and in assay [1] (meaning not explained) were 500 nM and 140 nM, respectively. The molecule also showed a Kb in assay [2] of 251 nM.
Take `CCCCc1nc2ccc(=O)ccc2n1Cc1ccc(-c2ccccc2C(=O)O)cc1` [Example 3, 4'-[[2-butyl-6(1H)-cycloheptimidazolon-1-yl]methyl]-[1,1'-biphenyl]-2-carboxylic acid]: the IC50 came to 1400 nM in assay [1] (setting [3]) and 24 nM in assay [1] (meaning not explained). This molecule also gave a Kb in assay [2] of 1260 nM.
Consider `CCCc1nc2cc(C(=O)O)c(=O)c(C(=O)O)cc2n1Cc1ccc(-c2ccccc2C(=O)O)cc1` [Example 4, 4'-[[5,7-dicarboxy-2-propyl-6(1H)-cycloheptimidazolon-1-yl]methyl]-[1,1'-biphenyl]-2-carboxylic acid], for which the IC50 in assay [1] (setting [3]) worked out at 2300 nM; in assay [1] (meaning not explained), 550 nM. In assay [2], this molecule showed a Kb of 1000 nM.
The like results for `CCCc1nc2ccc(=O)ccc2n1Cc1ccc(-c2ccccc2C(=O)O)cc1` [Example 5, 4'-[[2-propyl-6(1H)-cycloheptimidazolon-1-yl]methyl]-[1,1'-biphenyl]-2-carboxylic acid] were, in that order, 1400 nM, 349 nM and 1260 nM.
The like results for `CCCCCc1nc2cc(C)c(=O)c(C)cc2n1Cc1ccc(-c2ccccc2C(=O)O)cc1` [Example 6, 4'-[[5,7-dimethyl-2-pentyl-6(1H)-cycloheptimidazolon-1-yl]methyl]-[1,1'-biphenyl]-2-carboxylic acid] were, in that order, 2500 nM, 230 nM and 7940 nM.
The like results for `CCCCc1nc2cc(-c3ccccc3)c(=O)c(-c3ccccc3)cc2n1Cc1ccc(-c2ccccc2C(=O)O)cc1` [Example 7, 4'-[[5,7-diphenyl-2-butyl-6(1H)-cycloheptimidazolon-1-yl]methyl]-[1,1'-biphenyl]-2-carboxylic acid] were, in that order, 800 nM, 117 nM and 316 nM.
In the case of `CCCCc1nc2cc(C(C)C)c(=O)c(-c3ccccc3)cc2n1Cc1ccc(-c2ccccc2C(=O)O)cc1` [Example 10, 4'-[[5(7)-isopropyl-7(5)phenyl-2-butyl-6(1H)-cycloheptimidazolon-1-yl]methyl]-[1,1'-biphenyl]-2-carboxylic acid], the IC50 in assay [1] (setting [3]) was 2000 nM; in assay [1] (meaning not explained) it was 161 nM. The pA2 in assay [2] was 5.6.
Regarding `CCCCc1nc2cc(O)c(=O)c(Cl)cc2n1Cc1ccc(-c2ccccc2C(=O)O)cc1` [Example 11, 4'-[[5(7)-hydroxy-7(5)chloro-2-butyl-6(1H)-cycloheptimidazolon-1-yl]methyl]-[1,1'-biphenyl]-2-carboxylic acid], the IC50 in assay [1] (setting [3]) was 7100 nM. This molecule gave a pA2 in assay [2] of 6.4.
Regarding `CCCCc1nc2cc(C(=O)O)c(=O)c(COC)cc2n1Cc1ccc(-c2ccccc2C(=O)O)cc1` [Example 12, 4'-[[5(7)-carboxy-7(5)methoxymethyl-2-butyl-6(1H)-cycloheptimidazolon-1-yl]methyl]-[1,1'-biphenyl]-2-carboxylic acid], the IC50 in assay [1] (setting [3]) turned out to be 4000 nM; in assay [1] (meaning not explained), 390 nM. In addition, the pA2 in assay [2] is reported as 6.8.
For `CCCc1nc2ccc(=O)c(Cc3ccccc3)cc2n1Cc1ccc(-c2ccccc2C(=O)O)cc1` [Example 13, 4'-[[5(7)-hydrido-7(5)benzyl-2-propyl-6(1H)-cycloheptimidazolon-1-yl]methyl]-[1,1'-biphenyl]-2-carboxylic acid], in that order: 1900 nM, 38 nM and 5.5.
For `CCCCCc1nc2cc(C)c(=O)c(C)cc2n1Cc1ccc(-c2ccccc2-c2nn[nH]n2)cc1` [Example 20, 1-{2'-[(tetrazol-5-yl)-biphenyl-4-yl]methyl}-2-pentyl-5,7-dimethyl-cycloheptimidazolone], the values for the IC50 in assay [1] (setting [3]) and in assay [1] (meaning not explained) were 710 nM and 324 nM, respectively.
Take `CNCC(=O)N[C@@H](CCCN=C(N)N)C(=O)N[C@H](C(=O)N[C@@H](Cc1ccc(O)cc1)C(=O)N[C@H](C(=O)N[C@@H](Cc1cnc[nH]1)C(=O)N1CCC[C@H]1C(=O)N[C@@H](C)C(=O)O)C(C)C)C(C)C` [Saralasin]: the “residual agonist activity” value in the assay with angiotensin II receptors is recorded as “significant residual agonist activity”.
Take “angiotensin II: octapeptide, the primary active species of the renin-angiotensin system (DRVYIHPF; Angiotensin-2; UniProt P01019 25-32, looked up)”: the “vasoconstrictor potency” value in the assay on angiotensin II receptors is “very potent vasoconstrictor agent”.
In the case of “angiotensin III: heptapeptide {[des Asp^1 ]angiotensin II}”, in the assay with angiotensin II receptors, the “vasoconstrictor potency” value is on record as “less potent as a vasoconstrictor than angiotensin II”.
